In the NIST ThermoML archive (doi:10.1016/j.tca.2014.07.018):
Numbers after ± are expanded uncertainties.

Assay: molar heat capacity at saturation pressure
Conditions: Crystal, Small (less than 1 g) adiabatic calorimetry

C1C2CC3CC1CC(c1nnn[nH]1)(C2)C3 [5-(1-adamantyl)tetrazole]
Conditions	molar heat capacity [J/K/mol]
5.162 K	0.5343 ± 0.024
5.486 K	0.6514 ± 0.026
5.811 K	0.7886 ± 0.029
6.141 K	0.9446 ± 0.033
6.535 K	1.157 ± 0.037
6.999 K	1.433 ± 0.043
7.466 K	1.748 ± 0.05
7.944 K	2.099 ± 0.058
8.427 K	2.496 ± 0.067
8.915 K	2.914 ± 0.076
9.407 K	3.374 ± 0.086
9.905 K	3.847 ± 0.097
10.47 K	4.424 ± 0.078
11.12 K	5.106 ± 0.088
11.77 K	5.817 ± 0.097
12.42 K	6.568 ± 0.11
13.1 K	7.361 ± 0.12
13.77 K	8.166 ± 0.13
14.45 K	9.013 ± 0.14
15.14 K	9.87 ± 0.15
15.93 K	10.87 ± 0.16
16.83 K	12.03 ± 0.18
17.74 K	13.17 ± 0.19
18.65 K	14.31 ± 0.2
19.56 K	15.45 ± 0.21
20.76 K	16.96 ± 0.17
22.25 K	18.79 ± 0.18
23.76 K	20.65 ± 0.19
25.27 K	22.46 ± 0.19
26.78 K	24.22 ± 0.2
28.31 K	25.96 ± 0.2
29.59 K	27.43 ± 0.2
31.31 K	29.26 ± 0.21
33.16 K	31.15 ± 0.22
35.01 K	33.01 ± 0.23
36.86 K	34.76 ± 0.24
38.72 K	36.52 ± 0.25
40.58 K	38.18 ± 0.26
42.54 K	39.91 ± 0.27
44.6 K	41.62 ± 0.27
46.67 K	43.41 ± 0.28
48.74 K	45.04 ± 0.29
50.82 K	46.64 ± 0.3
52.9 K	48.22 ± 0.31
54.99 K	49.8 ± 0.32
57.07 K	51.31 ± 0.33
59.17 K	52.73 ± 0.33
61.28 K	54.19 ± 0.34
63.38 K	55.67 ± 0.35
65.49 K	57.06 ± 0.36
67.6 K	58.52 ± 0.36
69.71 K	59.93 ± 0.37
71.92 K	61.4 ± 0.38
74.24 K	62.88 ± 0.39
76.57 K	64.45 ± 0.39
78.7 K	65.87 ± 0.4
78.9 K	65.93 ± 0.4
80.66 K	67.14 ± 0.41
81.23 K	67.48 ± 0.41
82.56 K	68.36 ± 0.42
83.56 K	68.98 ± 0.42
84.46 K	69.59 ± 0.42
86.37 K	70.82 ± 0.43
88.29 K	72.06 ± 0.43
90.2 K	73.3 ± 0.46
92.12 K	74.53 ± 0.46
94.04 K	75.78 ± 0.47
95.96 K	77.1 ± 0.47
97.9 K	78.34 ± 0.48
99.83 K	79.61 ± 0.49
101.75 K	80.79 ± 0.49
103.69 K	82.06 ± 0.5
105.62 K	83.32 ± 0.5
107.56 K	84.62 ± 0.51
109.51 K	85.87 ± 0.52
111.45 K	87.18 ± 0.52
113.4 K	88.45 ± 0.53
115.36 K	89.75 ± 0.53
117.32 K	91.05 ± 0.54
119.27 K	92.33 ± 0.55
121.23 K	93.59 ± 0.55
123.19 K	94.91 ± 0.56
125.16 K	96.2 ± 0.56
127.12 K	97.48 ± 0.57
129.09 K	98.86 ± 0.58
131.06 K	100.1 ± 0.6
133.04 K	101.5 ± 0.6
135.02 K	102.8 ± 0.6
137 K	104.2 ± 0.6
138.98 K	105.5 ± 0.6
140.97 K	106.9 ± 0.6
142.95 K	108.3 ± 0.6
144.93 K	109.7 ± 0.6
146.93 K	111.1 ± 0.6
148.92 K	112.6 ± 0.6
150.91 K	114 ± 0.7
152.9 K	115.4 ± 0.7
154.89 K	116.8 ± 0.7
156.89 K	118.3 ± 0.7
158.89 K	119.8 ± 0.7
160.89 K	121.3 ± 0.7
162.89 K	122.7 ± 0.7
